According to the NIST ThermoML archive (doi:10.1021/je400783h):

Conditions: for surface tension liquid-gas: Drop volume; for viscosity / speed of sound / mass density / vapor or sublimation pressure: Liquid; for viscosity: Capillary tube (Ostwald / Ubbelohde) method; for speed of sound: Pulse-echo method; for vapor or sublimation pressure: Ebulliometric method (Recirculating still)

OCC1CCCO1 (stereo not given) [2-tetrahydrofurylmethanol]
Conditions	surface tension liquid-gas [mN/m]	vapor or sublimation pressure [kPa]
278.15 K	39.54	–
280.65 K	39.29	–
283.15 K	39.03	–
285.65 K	38.78	–
288.15 K	38.53	–
290.65 K	38.27	–
293.15 K	38.02	–
295.65 K	37.77	–
298.15 K	37.51	–
300.65 K	37.26	–
303.15 K	37.01	0.09
305.65 K	36.75	–
308.15 K	36.5	0.15
310.65 K	36.25	–
313.15 K	35.99	–

Conditions	mass density [kg/m3]	speed of sound [m/s]	viscosity [mPa·s]
278.15 K, 101.33 kPa	–	1556.4	10.39
280.65 K, 101.33 kPa	–	1547.6	9.487
283.15 K, 100 kPa	1062.84	–	–
283.15 K, 101.33 kPa	–	1538.6	8.684
283.15 K, 2500 kPa	1064.37	–	–
283.15 K, 5000 kPa	1065.68	–	–
283.15 K, 7500 kPa	1066.97	–	–
283.15 K, 10000 kPa	1068.24	–	–
283.15 K, 20000 kPa	1073.16	–	–
283.15 K, 30000 kPa	1077.84	–	–
283.15 K, 40000 kPa	1082.28	–	–
283.15 K, 50000 kPa	1086.55	–	–
283.15 K, 60000 kPa	1090.57	–	–
285.65 K, 101.33 kPa	–	1529.7	7.971
288.15 K, 100 kPa	1058.59	–	–
288.15 K, 101.33 kPa	–	1520.8	7.335
288.15 K, 2500 kPa	1060.15	–	–
288.15 K, 5000 kPa	1061.47	–	–
288.15 K, 7500 kPa	1062.8	–	–
288.15 K, 10000 kPa	1064.09	–	–
288.15 K, 20000 kPa	1069.11	–	–
288.15 K, 30000 kPa	1073.88	–	–
288.15 K, 40000 kPa	1078.41	–	–
288.15 K, 50000 kPa	1082.72	–	–
288.15 K, 60000 kPa	1086.83	–	–
290.65 K, 101.33 kPa	–	1511.8	6.765
293.15 K, 100 kPa	1054.34	–	–
293.15 K, 101.33 kPa	–	1503	6.254
293.15 K, 2500 kPa	1055.94	–	–
293.15 K, 5000 kPa	1057.3	–	–
293.15 K, 7500 kPa	1058.64	–	–
293.15 K, 10000 kPa	1060	–	–
293.15 K, 20000 kPa	1065.1	–	–
293.15 K, 30000 kPa	1069.97	–	–
293.15 K, 40000 kPa	1074.62	–	–
293.15 K, 50000 kPa	1078.97	–	–
293.15 K, 60000 kPa	1083.18	–	–
295.65 K, 101.33 kPa	–	1494.2	5.795
298.15 K, 100 kPa	1050.06	–	–
298.15 K, 101.33 kPa	–	1485.3	5.381
298.15 K, 2500 kPa	1051.72	–	–
298.15 K, 5000 kPa	1053.11	–	–
298.15 K, 7500 kPa	1054.48	–	–
298.15 K, 10000 kPa	1055.84	–	–
298.15 K, 20000 kPa	1061.08	–	–
298.15 K, 30000 kPa	1066.04	–	–
298.15 K, 40000 kPa	1070.75	–	–
298.15 K, 50000 kPa	1075.22	–	–
298.15 K, 60000 kPa	1079.49	–	–
300.65 K, 101.33 kPa	–	1476.5	5.006
303.15 K, 100 kPa	1045.78	–	–
303.15 K, 101.33 kPa	–	1467.8	4.667
303.15 K, 2500 kPa	1047.47	–	–
303.15 K, 5000 kPa	1048.9	–	–
303.15 K, 7500 kPa	1050.31	–	–
303.15 K, 10000 kPa	1051.69	–	–
303.15 K, 20000 kPa	1057.06	–	–
303.15 K, 30000 kPa	1062.11	–	–
303.15 K, 40000 kPa	1066.94	–	–
303.15 K, 50000 kPa	1071.49	–	–
303.15 K, 60000 kPa	1075.79	–	–
305.65 K, 101.33 kPa	–	1459	4.359
308.15 K, 100 kPa	1041.48	–	–
308.15 K, 101.33 kPa	–	1450.3	4.078
308.15 K, 2500 kPa	1043.19	–	–
308.15 K, 5000 kPa	1044.66	–	–
308.15 K, 7500 kPa	1046.09	–	–
308.15 K, 10000 kPa	1047.48	–	–
308.15 K, 20000 kPa	1052.96	–	–
308.15 K, 30000 kPa	1058.12	–	–
308.15 K, 40000 kPa	1063.05	–	–
308.15 K, 50000 kPa	1067.61	–	–
308.15 K, 60000 kPa	1072.09	–	–
310.65 K, 101.33 kPa	–	1441.6	3.822
313.15 K, 100 kPa	1037.17	–	–
313.15 K, 101.33 kPa	–	1432.8	3.588
313.15 K, 2500 kPa	1038.92	–	–
313.15 K, 5000 kPa	1040.41	–	–

101.33 kPa, Vibrating tube method
Conditions	mass density [kg/m3]
278.15 K	1067.07
280.65 K	1064.96
283.15 K	1062.84
285.65 K	1060.72
288.15 K	1058.59
290.65 K	1056.47
293.15 K	1054.34
295.65 K	1052.2
298.15 K	1050.06
300.65 K	1047.92
303.15 K	1045.78
305.65 K	1043.63
308.15 K	1041.48
310.65 K	1039.33
313.15 K	1037.17
